Measured values reported in PubChem BioAssay (NCI).
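How tested: cells in 96-well plates exposed to compound for 48 hours at five concentrations. Here, GI50 denotes the concentration required for 50% inhibition of growth. TGI denotes the concentration required for complete inhibition of growth.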

Assays:
Test in all cases: DTP human tumour cell line panel, 48 h; in the data active = GI50 below about 0.43 µM; inactive = the rest
HT29 colon = test system: HT29 colon
IGROV1 ovarian = test system: IGROV1 ovarian
CCRF-CEM leukemia = test system: CCRF-CEM leukemia
COLO 205 colon = test system: COLO 205 colon
MALME-3M melanoma = test system: MALME-3M melanoma
OVCAR-3 ovarian = test system: OVCAR-3 ovarian
SF-539 CNS = test system: SF-539 CNS
SK-OV-3 ovarian = test system: SK-OV-3 ovarian
SK-MEL-2 melanoma = test system: SK-MEL-2 melanoma
NCI-H522 lung = test system: NCI-H522 lung
HOP-62 NSCLC = test system: HOP-62 NSCLC
SR leukemia = test system: SR leukemia
SK-MEL-28 melanoma = test system: SK-MEL-28 melanoma
MDA-MB-231 breast = test system: MDA-MB-231 breast
SN12C renal = test system: SN12C renal
SF-268 CNS = test system: SF-268 CNS
K-562 leukemia = test system: K-562 leukemia
HS 578T breast = test system: HS 578T breast
UACC-257 melanoma = test system: UACC-257 melanoma
T-47D breast = test system: T-47D breast
LOX IMVI melanoma = test system: LOX IMVI melanoma
SW-620 colon = test system: SW-620 colon
UACC-62 melanoma = test system: UACC-62 melanoma
MOLT-4 leukemia = test system: MOLT-4 leukemia
MCF7 breast = test system: MCF7 breast
RPMI-8226 leukemia = test system: RPMI-8226 leukemia
RXF 393 renal = test system: RXF 393 renal
OVCAR-5 ovarian = test system: OVCAR-5 ovarian
SNB-75 CNS = test system: SNB-75 CNS
MDA-MB-435 = test system: MDA-MB-435
HOP-92 NSCLC = test system: HOP-92 NSCLC
NCI-H460 lung = test system: NCI-H460 lung
SNB-19 CNS = test system: SNB-19 CNS
A498 renal = test system: A498 renal
OVCAR-8 ovarian = test system: OVCAR-8 ovarian
SK-MEL-5 melanoma = test system: SK-MEL-5 melanoma
CAKI-1 renal = test system: CAKI-1 renal
BT-549 breast = test system: BT-549 breast
U251 CNS = test system: U251 CNS
HCT-116 colon = test system: HCT-116 colon
HCT-15 colon = test system: HCT-15 colon
EKVX NSCLC = test system: EKVX NSCLC
PC-3 prostate = test system: PC-3 prostate
OVCAR-4 ovarian = test system: OVCAR-4 ovarian
TK-10 renal = test system: TK-10 renal
A549 NSCLC = test system: A549 NSCLC
NCI/ADR-RES ovarian = test system: NCI/ADR-RES ovarian
DU-145 prostate = test system: DU-145 prostate
ACHN renal = test system: ACHN renal
HCC-2998 colon = test system: HCC-2998 colon
SF-295 CNS = test system: SF-295 CNS
NCI-H226 lung = test system: NCI-H226 lung
NCI-H23 lung = test system: NCI-H23 lung
KM12 colon = test system: KM12 colon

Cc1cc2nc(-c3c(N)ncc(C#N)c3-c3ccc(Cl)cc3)[nH]c2cc1C
46.3 µM: TGI (NCI-H226 lung)
27.1 µM: TGI (DU-145 prostate)
53.2 µM: TGI (UACC-62 melanoma)
27.5 µM: TGI (SF-295 CNS)
24.9 µM: TGI (A549 NSCLC)
76 µM: TGI (OVCAR-3 ovarian)
19.7 µM: TGI (HCT-116 colon)
40.2 µM: TGI (SK-MEL-28 melanoma)
> 100 µM: TGI (HT29 colon) | TGI (IGROV1 ovarian) | TGI (CCRF-CEM leukemia) | TGI (SK-MEL-2 melanoma) | TGI (SR leukemia) | TGI (SN12C renal) | TGI (K-562 leukemia) | TGI (HS 578T breast) | TGI (T-47D breast) | TGI (SW-620 colon) | TGI (MOLT-4 leukemia) | TGI (MCF7 breast) | TGI (RPMI-8226 leukemia) | TGI (OVCAR-5 ovarian) | TGI (MDA-MB-435) | TGI (NCI-H460 lung) | TGI (CAKI-1 renal) | TGI (BT-549 breast) | TGI (HCT-15 colon) | TGI (NCI/ADR-RES ovarian) | TGI (ACHN renal) | TGI (HCC-2998 colon) | TGI (KM12 colon)
44.2 µM: TGI (MDA-MB-231 breast)
59.2 µM: TGI (A498 renal)
13.7 µM: TGI (RXF 393 renal)
39.3 µM: TGI (PC-3 prostate)
83.4 µM: TGI (COLO 205 colon)
78.8 µM: TGI (MALME-3M melanoma)
5.23 µM: TGI (HOP-92 NSCLC)
21.4 µM: TGI (U251 CNS)
76.7 µM: TGI (EKVX NSCLC)
82.6 µM: TGI (UACC-257 melanoma)
32.4 µM: TGI (SNB-75 CNS)
21.3 µM: TGI (TK-10 renal)
75.6 µM: TGI (SNB-19 CNS)
21.7 µM: TGI (HOP-62 NSCLC)
84.2 µM: TGI (SF-268 CNS)
inactive: GI50 (HT29 colon) 6.06 µM | GI50 (IGROV1 ovarian) 18.7 µM | GI50 (CCRF-CEM leukemia) 24.6 µM | GI50 (COLO 205 colon) 6.24 µM | GI50 (MALME-3M melanoma) 14.5 µM | GI50 (OVCAR-3 ovarian) 13.9 µM | GI50 (SF-539 CNS) 2.07 µM | GI50 (SK-OV-3 ovarian) 11.9 µM | GI50 (SK-MEL-2 melanoma) 20.4 µM | GI50 (NCI-H522 lung) 4.07 µM | GI50 (HOP-62 NSCLC) 6.36 µM | GI50 (SR leukemia) 28.7 µM | GI50 (SK-MEL-28 melanoma) 5.8 µM | GI50 (MDA-MB-231 breast) 10.5 µM | GI50 (SN12C renal) 31 µM | GI50 (SF-268 CNS) 19.8 µM | GI50 (K-562 leukemia) 31.5 µM | GI50 (HS 578T breast) 12 µM | GI50 (UACC-257 melanoma) 11.4 µM | GI50 (T-47D breast) 4.63 µM | GI50 (LOX IMVI melanoma) 5.83 µM | GI50 (SW-620 colon) 32.4 µM | GI50 (UACC-62 melanoma) 11 µM | GI50 (MOLT-4 leukemia) > 100 µM | GI50 (MCF7 breast) 9.34 µM | GI50 (RPMI-8226 leukemia) 5.55 µM | GI50 (RXF 393 renal) 3.18 µM | GI50 (OVCAR-5 ovarian) 14.7 µM | GI50 (SNB-75 CNS) 12.9 µM | GI50 (MDA-MB-435) 26.2 µM | GI50 (NCI-H460 lung) 30.4 µM | GI50 (SNB-19 CNS) 19.5 µM | GI50 (A498 renal) 11.8 µM | GI50 (OVCAR-8 ovarian) 4.53 µM | GI50 (CAKI-1 renal) 12.1 µM | GI50 (BT-549 breast) 37.6 µM | GI50 (U251 CNS) 5.48 µM | GI50 (HCT-116 colon) 3.47 µM | GI50 (HCT-15 colon) 30.6 µM | GI50 (EKVX NSCLC) 14.4 µM | GI50 (PC-3 prostate) 6.59 µM | GI50 (OVCAR-4 ovarian) 4.4 µM | GI50 (TK-10 renal) 4.67 µM | GI50 (A549 NSCLC) 4.17 µM | GI50 (NCI/ADR-RES ovarian) 15.7 µM | GI50 (DU-145 prostate) 5.68 µM | GI50 (ACHN renal) 11.1 µM | GI50 (HCC-2998 colon) 20.9 µM | GI50 (SF-295 CNS) 10 µM | GI50 (NCI-H226 lung) 15 µM | GI50 (NCI-H23 lung) 8.1 µM | GI50 (KM12 colon) 14.8 µM
25.4 µM: TGI (OVCAR-4 ovarian)
27.9 µM: TGI (SK-OV-3 ovarian) | TGI (NCI-H522 lung)
5.78 µM: TGI (SF-539 CNS)
26 µM: TGI (LOX IMVI melanoma)
active: GI50 (HOP-92 NSCLC) 0.275 µM
30.7 µM: TGI (NCI-H23 lung)
29.6 µM: TGI (OVCAR-8 ovarian)
33.4 µM: TGI (SK-MEL-5 melanoma)
